Patent US4604406A, “N-[6-methoxy-5-(perfluoroalkyl)-1-naphtholyl]-N-methylglycines and their thionaphthoyl analogs” (Ayerst, McKenna & Harrison, Inc., priority 1984, dated 1986)
One block for each molecule: values may come before it.

Columns and labels:
[1] = test system: dulcitol accumulation in the lens; experiment: % lowering dulcitol accumulation in vivo, lens (L), galactosemic rats; parameters: species or system rat (Sprague-Dawley); conditions: 4 days
Text: (§1) Such experiments are exemplified hereinbelow after the listing of the following general comments pertaining to these experiments:
(§2) (a) Four or more groups of six male rates, 50-70 g, Sprague-Dawley strain, were used. The first group, the control group, was fed a mixture of laboratory chow (rodent laboratory chow, Purina) and glucose at 20% (w/w %) concentration. The untreated galactosemic group was fed a similar diet in which galactose is substituted for glucose. The third group was fed a diet prepared by mixing a given amount of the test compound with the galactose containing diet. The concentration of galactose in the diet of the treated groups was the same as that for the untreated galactosemic group.
(§3) (b) After four days, the animals were killed by decapitation. The eyeballs were removed and punctured with a razor blade; the freed lenses were rolled gently on filter paper and weighed. The sciatic nerves were dissected as completely as possible and weighed. Both tissues were frozen and can be kept up to two weeks before being analyzed for dulcitol.
(§4) Only two minor reagent changes were made: (a) The rinsing mixture was an aqueous 5% (w/v) trichloroacetic acid solution and (b) the stock solution was prepared by dissolving 25 mg of dulcitol in 100 ml of an aqueous trichloroacetic acid solution. [N.B.: For each experiment the average value found in the tissue from rats fed the glucose diet was subtracted from the individual values found in the corresponding rat tissue to obtain the amount of polyol accumulated.]
(§5) The figures under L, N and D represent the percentage decrease of dulcitol accumulation in the tissues of the lens, sciatic nerve and diaphragm, respectively, for treated rats as compares to untreated rats.

[2] = target: aldose reductase (Bos taurus, UniProt P16116); experiment: % inhibition in vitro at 10^-7 M (aldose reductase inhibition); assay type: biochemical
[3] = test system: dulcitol accumulation in the diaphragm; experiment: % lowering dulcitol accumulation in vivo, diaphragm (D), galactosemic rats; parameters: species or system rat (Sprague-Dawley); conditions: 4 days
Text: as §1, §2, §4, §5

[4] = test system: dulcitol accumulation; experiment: galactosemic rats, dulcitol accumulation, overall comparison in words; assay type: in vivo, rat (Sprague-Dawley)
Text: The aldose reductase inhibiting property of the compounds of this invention and the utilization of the compounds in preventing, diminishing and alleviating diabetic complications are demonstrable in experiments using galactosemic rats, see Dvornik et at., cited above. Such experiments are exemplified hereinbelow after the listing of the following general comments pertaining to these experiments:
as §2, §3
as §4, with “(c) The polyol determination was performed by a modification of the procedure of M. Kraml and L. Cosyns, Clin. Biochem., 2,373 (1969). Only” for “Only”
as §5

[5] = target: aldose reductase (Homo sapiens, UniProt P15121); conditions: literature report; cited from earlier work
[6] = 24.5 mg/kg/day in galactose diet

Structure (SMILES): COc1ccc2c(C(=O)N(C)CC(=O)O)cccc2c1C(F)(F)C(F)(F)C(F)(F)F [Compound 4, N-[[5-(heptafluoropropyl)-6-methoxy-1-naphthalenyl]carbonyl]-N-methylglycine]
% lowering dulcitol accumulation in vivo, L ([1]; 10 mg/kg/day in galactose diet): 19% | inhibition at 0.1 µM [2]: 63% | % lowering dulcitol accumulation in vivo, D ([3]; 10 mg/kg/day in galactose diet): 38% | activity compared with compound No. 7 (tolrestat) at 11 mg/kg/day ([4]; 10 mg/kg/day): comparable results

Structure (SMILES): COc1ccc2c(C(=S)N(C)CC(=O)O)cccc2c1C(F)(F)C(F)(F)C(F)(F)C(F)(F)C(F)(F)C(F)(F)F [Compound 5, N-[[6-Methoxy-5-(tridecafluorohexyl)-1-naphthalenyl]thioxomethyl]-N-methylglycine]
% lowering dulcitol accumulation in vivo, L ([1]; 26 mg/kg/day in galactose diet): 0% | inhibition at 0.1 µM [2]: 40% | % lowering dulcitol accumulation in vivo, D ([3]; 26 mg/kg/day in galactose diet): 51%

Structure (SMILES): O=C(O)CN1C(=O)c2cccc3cccc(c23)C1=O [1,3-Dioxo-1H-benz[de]isoquinoline-2(3H)-acetic acid]
inhibition of aldose reductase [5]: effective inhibitor of aldose reductase

Structure (SMILES): COc1ccc2c(C(=S)N(C)CC(=O)O)cccc2c1C(F)(F)C(F)(F)C(F)(F)F [Compound 3, N-[[5-(heptafluoropropyl)-6-methoxy-1-naphthalenyl]thioxomethyl]-N-methylglycine]
% lowering dulcitol accumulation in vivo, L ([1]; 5 mg/kg/day in galactose diet): 20% | inhibition at 0.1 µM [2]: 75% | % lowering dulcitol accumulation in vivo, D ([3]; 5 mg/kg/day in galactose diet): 76% | activity compared with tolrestat at 4 mg/kg/day ([4]; 5 mg/kg/day): superior to tolrestat | activity compared with tolrestat at 11 mg/kg/day ([4]; 5 mg/kg/day): approaches the activity of tolrestat | activity relative to tolrestat ([4]; about twice as active as tolrestat): about twice

inhibition at 0.1 µM [2]: 57%
Structure (SMILES): COc1ccc2c(C(=O)N(C)CC(=O)O)cccc2c1C(F)(F)F [Compound 8, N--[ [5-(Trifluoromethyl)-6-methoxy-1-naphthalenyl]carbonyl]-N--methylglycine, reference compound]
% lowering dulcitol accumulation in vivo, L ([1]; 10 mg/kg/day in galactose diet): 0% | % lowering dulcitol accumulation in vivo, D ([3]; 10 mg/kg/day in galactose diet): 20%

Structure (SMILES): COc1ccc2c(C(=S)N(C)CC(=O)O)cccc2c1C(F)(F)F [Compound 7, N--[[5-(Trifluoromethyl)-6-methoxy-1-naphthalenyl]thioxomethyl]-N--methylglycine, reference compound]
% lowering dulcitol accumulation in vivo, D ([3]; 11 mg/kg/day in galactose diet): 89%

inhibition at 0.1 µM [2]: 71%
Structure (SMILES): COc1ccc2c(C(=S)N(C)CC(=O)O)cccc2c1C(F)(F)C(F)(F)F [Compound 1, N-[[6-methoxy-5-(pentafluoroethyl)-1-naphthalenyl]thioxomethyl]-N-methylglycine]
% lowering dulcitol accumulation in vivo, L [1, 6]: 29% | % lowering dulcitol accumulation in vivo, D [3, 6]: 93%

inhibition at 0.1 µM [2]: 56%
Structure (SMILES): COc1ccc2c(C(=O)N(C)CC(=O)O)cccc2c1C(F)(F)C(F)(F)F [Compound 2, N-[[6-Methoxy-5-(pentafluoroethyl)-1-naphthalenyl]carbonyl]-N-methylglycine]
% lowering dulcitol accumulation in vivo, D ([3]; 29 mg/kg/day in galactose diet): 68%

Structure (SMILES): O=C1NC(=O)[C@@]2(CCOc3ccc(F)cc32)N1 [sorbinol, (S)-6-Fluoro-2,3-dihydrospiro(4H-1-benzopyran-4,4'-imidazolidine)-2',5'-dione]
inhibition of aldose reductase [5]: aldose reductase inhibiting properties

Structure (SMILES): COc1ccc2c(C(=O)N(C)CC(=O)O)cccc2c1C(F)(F)C(F)(F)C(F)(F)C(F)(F)C(F)(F)C(F)(F)F [Compound 6, N--[[5-(Tridecafluorohexyl)-6-methoxy-1-naphthalenyl]carbonyl]-N--methylglycine]
% lowering dulcitol accumulation in vivo, L ([1]; 25 mg/kg/day in galactose diet): 0% | inhibition at 0.1 µM [2]: 47% | % lowering dulcitol accumulation in vivo, D ([3]; 25 mg/kg/day in galactose diet): 0%
